Consider 20 molecules from ChEMBL document CHEMBL5579824, “Novel Hsp90-Targeting PROTACs: Enhanced synergy with cisplatin in combination therapy of cervical cancer” (Eur J Med Chem, 2024).

The target of test [1] is T1, von Hippel-Lindau disease tumor suppressor/Heat shock protein HSP 90-alpha/Heat shock protein HSP 90-beta (Homo sapiens) (UniProt P07900+P08238+P40337). Kind of test: Protac activity at VHL/Hsp90 in human SiHa cells assessed as induction of Hsp90 degradation at 1 uM incubated for 10 hrs by Western blot analysis. In kind it is cell-based. Background: In western blotting, separated proteins are transferred to a membrane and probed.
T1 sequence (P08238 whole entry, looked up, other chains not shown): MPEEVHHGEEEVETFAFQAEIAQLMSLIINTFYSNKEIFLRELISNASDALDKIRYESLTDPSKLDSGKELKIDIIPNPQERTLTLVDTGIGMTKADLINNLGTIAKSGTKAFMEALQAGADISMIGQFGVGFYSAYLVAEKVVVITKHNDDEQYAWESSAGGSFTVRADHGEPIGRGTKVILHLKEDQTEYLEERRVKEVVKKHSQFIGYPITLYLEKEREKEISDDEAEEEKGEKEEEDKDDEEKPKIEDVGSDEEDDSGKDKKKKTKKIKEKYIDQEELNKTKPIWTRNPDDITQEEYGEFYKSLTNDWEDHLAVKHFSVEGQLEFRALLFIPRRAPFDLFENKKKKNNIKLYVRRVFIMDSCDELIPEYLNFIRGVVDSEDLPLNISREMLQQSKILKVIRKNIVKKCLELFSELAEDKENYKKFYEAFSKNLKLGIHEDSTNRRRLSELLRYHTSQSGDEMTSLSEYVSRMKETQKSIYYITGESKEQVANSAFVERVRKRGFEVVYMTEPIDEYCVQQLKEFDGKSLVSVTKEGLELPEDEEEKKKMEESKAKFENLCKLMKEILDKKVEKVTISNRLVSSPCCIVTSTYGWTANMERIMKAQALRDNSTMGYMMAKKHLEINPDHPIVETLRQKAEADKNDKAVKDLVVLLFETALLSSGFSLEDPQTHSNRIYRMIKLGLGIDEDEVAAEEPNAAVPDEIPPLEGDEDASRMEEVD
T1 sequence (P40337 whole entry, looked up, other chains not shown): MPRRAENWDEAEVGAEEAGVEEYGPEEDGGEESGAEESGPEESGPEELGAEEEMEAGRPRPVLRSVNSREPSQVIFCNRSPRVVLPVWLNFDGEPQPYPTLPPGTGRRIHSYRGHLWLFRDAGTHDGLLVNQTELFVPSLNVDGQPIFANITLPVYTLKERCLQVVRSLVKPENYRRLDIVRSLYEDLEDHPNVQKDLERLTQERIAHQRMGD

In a further test the test system is SiHa. The test is described as follows: Antiproliferative activity against human SiHa cells assessed as reduction in cell viability incubated for 72 hrs by CCK-8 assay. In kind it is functional, cell-based. In general terms: Formazan colour is commonly taken as a measure of viable cells.
For test [2], the target named is T2, Protein cereblon/Heat shock protein HSP 90-alpha/Heat shock protein HSP 90-beta (Homo sapiens) (UniProt P07900+P08238+Q96SW2). Kind of test: Protac activity at CRBN/Hsp90 in human SiHa cells assessed as induction of Hsp90 degradation at 1 uM incubated for 10 hrs by Western blot analysis. Type of test: cell-based.
Test [3] deals with T2, Protein cereblon/Heat shock protein HSP 90-alpha/Heat shock protein HSP 90-beta (Homo sapiens). The test is described as follows: Protac activity at CRBN/Hsp90 in human SiHa cells assessed as induction of Hsp90 degradation (causing hook effect) at > 0.1 uM incubated for 10 hrs by Western blot analysis. Type of test: cell-based.
For test [4] the target is unchanged. Kind of test: Protac activity at CRBN/Hsp90 in human SiHa cells assessed as induction of Hsp90 degradation at 1 uM incubated for 2 hrs by Western blot analysis. In kind it is cell-based.
For test [5], the target named is T1, von Hippel-Lindau disease tumor suppressor/Heat shock protein HSP 90-alpha/Heat shock protein HSP 90-beta (Homo sapiens). The test is described as follows: Protac activity at VHL/Hsp90 in human SiHa cells assessed as induction of Hsp90 degradation (causing hook effect) at > 0.1 uM incubated for 10 hrs by Western blot analysis. In kind it is cell-based.

Calls of active or inactive are those of the source. No cut-off for these calls is given here.

As usually defined, the IC50 is the concentration that gives 50% inhibition. Turning to `Cc1ncsc1-c1ccc([C@H](C)NC(=O)[C@@H]2C[C@@H](O)CN2C(=O)[C@@H](NCCCCCCCC(=O)NCC(=O)O[C@H]2CC[C@H](Nc3cc(-n4nc(C(F)(F)F)c5c4CC(C)(C)CC5=O)ccc3C(N)=O)CC2)C(C)(C)C)cc1`, the result in test [1] was Active. In addition, the IC50 in the test with SiHa is 170 nM.
Take `CC1(C)CC(=O)c2c(C(F)(F)F)nn(-c3ccc(C(N)=O)c(N[C@H]4CC[C@H](NC(=O)CNC(=O)CCCCCCCCCNc5cccc6c5CN(C5CCC(=O)NC5=O)C6=O)CC4)c3)c2C1` (some centres not stated): the IC50 in the test on SiHa turned out to be 750 nM. Moreover, the outcome in test [2] was inactive.
For `CC1(C)CC(=O)c2c(C(F)(F)F)nn(-c3ccc(C(N)=O)c(NCCCNC(=O)CCCCCCCNc4cccc5c4CN(C4CCC(=O)NC4=O)C5=O)c3)c2C1` (configuration not stated) the same measures were 5520 nM and “inactive”.
For `CC1(C)CC(=O)c2c(C(F)(F)F)nn(-c3ccc(C(N)=O)c(N[C@H]4CC[C@H](NCCCCCCCCCC(=O)Nc5cccc6c5CN(C5CCC(=O)NC5=O)C6=O)CC4)c3)c2C1` (some centres not stated) the same measures were 5270 nM and “inactive”.
Take `CC1(C)CC(=O)c2c(C(F)(F)F)nn(-c3ccc(C(N)=O)c(N[C@H]4CC[C@H](OC(=O)CNC(=O)CCCCCCNc5cccc6c5CN(C5CCC(=O)NC5=O)C6=O)CC4)c3)c2C1` (some centres not stated): the half-maximal inhibitory concentration (IC50) with SiHa turned out to be 240 nM. Also, the outcome in test [2] was Active.
As for `CC1(C)CC(=O)c2c(C(F)(F)F)nn(-c3ccc(C(N)=O)c(N[C@H]4CC[C@H](OC(=O)CNC(=O)CCCCCNc5cccc6c5CN(C5CCC(=O)NC5=O)C6=O)CC4)c3)c2C1` (some centres not stated), the IC50 with SiHa was determined as 460 nM. The result in test [2] was Active.
For `CC1(C)CC(=O)c2c(C(F)(F)F)nn(-c3ccc(C(N)=O)c(NCCCNC(=O)CCCCCCCCCNc4cccc5c4CN(C4CCC(=O)NC4=O)C5=O)c3)c2C1` (configuration not stated) the same measures were 430 nM and “inactive”.
On to `CC1(C)CC(=O)c2c(C(F)(F)F)nn(-c3ccc(C(N)=O)c(N[C@H]4CC[C@H](OC(=O)CNC(=O)CCCCCCCCCNc5cccc6c5CN(C5CCC(=O)NC5=O)C6=O)CC4)c3)c2C1` (some centres not stated), for which, in the test with SiHa, the IC50 was 140 nM.
Take `CC1(C)CC(=O)c2c(C(F)(F)F)nn(-c3ccc(C(N)=O)c(N[C@H]4CC[C@H](NC(=O)CCCCCCCCCNc5cccc6c5CN(C5CCC(=O)NC5=O)C6=O)CC4)c3)c2C1` (some centres not stated): the IC50 in the test with SiHa was determined as 190 nM. Besides, the outcome in test [2] was inactive.
Regarding `Cc1ncsc1-c1ccc([C@H](C)NC(=O)[C@@H]2C[C@@H](O)CN2C(=O)[C@@H](NCCCCCC(=O)NCC(=O)O[C@H]2CC[C@H](Nc3cc(-n4nc(C(F)(F)F)c5c4CC(C)(C)CC5=O)ccc3C(N)=O)CC2)C(C)(C)C)cc1`, the IC50 in the test with SiHa came out at 660 nM.
Turning to `CC1(C)CC(=O)c2c(C(F)(F)F)nn(-c3ccc(C(N)=O)c(N[C@H]4CC[C@H](OC(=O)CNC(=O)COCCOCCNc5cccc6c5C(=O)N(C5CCC(=O)NC5=O)C6=O)CC4)c3)c2C1` (some centres not stated), the result in test [3] and in test [2] was inactive. In addition, the IC50 with SiHa worked out at 40 nM.
On to `CN1C(=O)CCC(N2Cc3c(NCCCCCCCC(=O)NCC(=O)O[C@H]4CC[C@H](Nc5cc(-n6nc(C(F)(F)F)c7c6CC(C)(C)CC7=O)ccc5C(N)=O)CC4)cccc3C2=O)C1=O` (some centres not stated), for which, in test [4], the outcome was inactive.
Regarding `CC1(C)CC(=O)c2c(C(F)(F)F)nn(-c3ccc(C(N)=O)c(NCCCNC(=O)COCCOCCNc4cccc5c4CN(C4CCC(=O)NC4=O)C5=O)c3)c2C1` (configuration not stated), the IC50 in the test on SiHa was found to be 7300 nM. The result in test [2] was inactive.
`CC1(C)CC(=O)c2c(C(F)(F)F)nn(-c3ccc(C(N)=O)c(N[C@H]4CC[C@H](OC(=O)CNC(=O)CCCCNc5cccc6c5CN(C5CCC(=O)NC5=O)C6=O)CC4)c3)c2C1` (some centres not stated): the IC50 with SiHa is 310 nM.
Turning to `Cc1ncsc1-c1ccc([C@H](C)NC(=O)[C@@H]2C[C@@H](O)CN2C(=O)[C@@H](NCCCCCCCCCC(=O)NCC(=O)O[C@H]2CC[C@H](Nc3cc(-n4nc(C(F)(F)F)c5c4CC(C)(C)CC5=O)ccc3C(N)=O)CC2)C(C)(C)C)cc1`, the result in test [1] was Active. Moreover, the IC50 with SiHa turned out to be 230 nM.
With `CC1(C)CC(=O)c2c(C(F)(F)F)nn(-c3ccc(C(N)=O)c(NCCCNC(=O)CCCCCCCCCCNc4cccc5c4CN(C4CCC(=O)NC4=O)C5=O)c3)c2C1` (configuration not stated), the IC50 in the test with SiHa was determined as 560 nM. Besides, in test [2], the outcome was inactive.
`CC1(C)CC(=O)c2c(C(F)(F)F)nn(-c3ccc(C(N)=O)c(N[C@H]4CC[C@H](OC(=O)CN)CC4)c3)c2C1` [SNX 5422]: in the test with SiHa, the half-inhibitory concentration (IC50) worked out at 14 nM.
On to `Cc1ncsc1-c1ccc([C@H](C)NC(=O)[C@@H]2C[C@@H](O)CN2C(=O)[C@@H](NCCOCCOCC(=O)NCC(=O)O[C@H]2CC[C@H](Nc3cc(-n4nc(C(F)(F)F)c5c4CC(C)(C)CC5=O)ccc3C(N)=O)CC2)C(C)(C)C)cc1`, for which the result in test [1] and in test [5] was inactive. In the test with SiHa, the concentration for half-maximal inhibition (IC50) turned out to be 30 nM.
Take `CC1(C)CC(=O)c2c(C(F)(F)F)nn(-c3ccc(C(N)=O)c(NCCCNC(=O)CCCCCNc4cccc5c4CN(C4CCC(=O)NC4=O)C5=O)c3)c2C1` (configuration not stated): the IC50 in the test on SiHa worked out at 9610 nM. The outcome in test [2] was inactive.
For `CC1(C)CC(=O)c2c(C(F)(F)F)nn(-c3ccc(C(N)=O)c(N[C@H]4CC[C@H](OC(=O)CNC(=O)CCCNc5cccc6c5CN(C5CCC(=O)NC5=O)C6=O)CC4)c3)c2C1` (some centres not stated) the same measures were 70 nM and “Active”.
